According to patent publication US9618453B2, “Aggregation induced emission of fluorescent bioprobes and methods of using the same” (THE HONG KONG UNIVERSITY OF SCIENCE AND TECHNOLOGY, priority 2011, dated 2017):

Columns and labels:
[1] = biological target: bovine serum albumin (BSA) (Bos taurus, UniProt P02769); test: SDS-PAGE staining of BSA with TPENCS (prestaining, poststaining), compared with CBB and FITC; conditions: for LOD / limit of detection (LOD): BSA on SDS-PAGE gel, CBB restaining of the same gel; for LOD: TPENCS poststaining; for limit of detection (LOD): TPENCS prestaining; for LOD on nitrocellulose membrane: after transfer from gel; for self-quenching effect versus F/P ratio: equal amount of BSA, series of dye concentrations
Procedure: The protein samples were treated with denaturizing 4× sample buffer containing 62.5 mM Tris (pH 8.5), 20% (v/v) glycerol, 4% SDS (w/v), and 3% (w/v) DTT for 5 min at 85˜95° C. in Protein Lobind Eppendorf cups. Serial dilutions of the proteins were labeled and loaded onto the gel lanes. Electrophoresis was carried out on self-cast polyacrylamide mini-gels (1 mm thick) using a discontinuous buffer system. The separation gel (pH 8.8) contained 12% polyacrylamide. The stacking gel (pH 6.8) contained 4% polyacrylamide. Both gels have an acrylamide/bis ratio of 37.5:1. The running buffer contained 25 mM Tris (pH 8.6), 192 mM glycine and 0.1% SDS (w/v) in water. All solutions were freshly prepared prior to use. SDS-PAGE was carried out on a vertical polyacrylamide gel system at a current of 15 mA until the protein bands reached the interface of the separating gel. Separation was performed at 100 V for two hours.
Fluorescence prestaining of proteins for SDS-PAGE gels was applied prior to the denaturation step. About 1 mg of the protein was dissolved in 1 mL of 0.1 M sodium bicarbonate buffer solution (15 μM). 10 μL of TPENCS DMSO stock solution (5 mM) was added to 100 μL protein solution. The pH was optimized to ˜9 by adding 1 M sodium bicarbonate buffer. The reaction mixture was incubated for 2 h at 37° C. in an Eppendorf Thermomixer. Then, samples were cooled either to room temperature for instant use or frozen for eventual use.
2.5 g of Coomassie blue R250 was dissolved in 1000 mL of 50% (v/v) methanol, 10% (v/v) acetic acid, and 40% (v/v) water with stirring as needed. The solution was filtered to remove any insoluble material. The final concentration of Coomassie blue R250 was 0.25% (w/v). After electrophoresis, the apparatus was disassembled and the gel was immerged into CBB solution. The gel was stained at room temperature overnight with gentle agitation. The Coomassie stain was removed by aspiration after staining. The gel was then immerged into the destaining solution composed of 50% (v/v) methanol, 10% (v/v) acetic acid, and 40% (v/v) water which allowed the gel to destain with gentle agitation. The destaining step was repeated several times, removing destaining solution at each change by aspiration. The destaining was continued until the protein bands were seen clearly without any background staining of the gel.
The protocol of gel fluorescent poststaining with TPENCS was similar to that of the CBB poststaining. The only difference was that the composition of the staining solution was prepared by mixing 1 mL DMSO stock solution of TPENCS (5 mM) with 20 mL 10% SDS aqueous (w/v) solution, and the pH was optimized to ˜9.0 by adding 1 M sodium bicarbonate buffer. The destaining solution was 10% SDS aqueous (w/v) solution. Similar to the destaining protocol of Coomassie brilliant blue, the gel was immerged into the 10% SDS aqueous (w/v) solution and destained with gentle agitation. The destaining solution was changed every two hours and the whole destaining process was finished within six hours.
Since nearly all kinds of proteins have reactive amine groups (lysine residues) on their molecular chains, bovine serum albumin (BSA), a commonly used protein, was employed as a test sample to verify the staining effect of TPENCS. The prestained BSA was loaded onto the gel lane b and a pure BSA sample was loaded on lane c at the same time as a control. After electrophoresis, the gel fluorescent image was taken under UV excitation within the Gel Doc XR+ documentation system (FIG. 2a). […] The gel was then introduced to the poststaining procedure and the fluorescent image was again obtained (FIG. 2b).

[2] = Photoluminescence in THF/water mixtures with different water fractions (aggregation induced emission); assay type: physicochemical
Source text: The AIE of TPENCS is illustrated in FIG. 1. […] With water content ranging from 0-70%, the fluorescence intensity remained at a very low level. When the water concentration was in the 80-90 vol % range, a rapid and dramatic increase of the fluorescence intensity with increasing water content was observed (FIG. 1b). The PL intensity of TPENCS in the water/THF solution with a water fraction of 90 vol % was approximately 50-fold higher than that in the mixture with 70% water. The quantum efficiency of TPENCS was 52.2% in the solid state.
Similar to other AIE active molecules, TPEMBR only gave weak emission in good solvents such as THF. […] To quantify the effect of water content on the degree of fluorescent emission enhancement, the photoluminescence intensity of TPEMBR was measured where the fraction of water was increased from 0 to 90 vol %. With the water content in the range of 0-70%, the fluorescent intensity remained at a very low level. With the water fraction reaching the 80-90 vol % range, a rapid and dramatic increase of the fluorescent intensity was observed (FIG. 9b). The photoluminescence intensity of TPEMBR in the water/THF solution with a water fraction of 90 vol % was approximately 50-fold stronger than that in the mixture with 70% water. In the solid state, the quantum efficiency of TPEMBR was determined to be 31.7%.
The AIE of SITC is illustrated in FIGS. 17a and 17b. The wavelength at maximum absorption of SITC was at 363 nm and the emission maximum was at 490 nm. […] To quantify the effect of water content on the elevation of the fluorescent emission, the photoluminescence intensity of SITC was measured with concentration of water increasing from 0 to 90 vol %. With water content ranging from 0-70%, the fluorescent intensity remained at a very low level. When the water concentration was in the 80-95 vol % range, a rapid and dramatic increase of the fluorescent intensity with increasing water content was observed (FIG. 17b). The photoluminescence intensity of SITC in the water/THF solution with a water fraction of 95 vol % was approximately 50-fold higher than that in the mixture with 70% water. The quantum efficiency of SITC was 45.8% in the solid state.
(§1) Tetrahydrofuran (THF; Labscan) was distilled under nitrogen from sodium benzophenone ketyl immediately prior to use. Acrylamide was purchased from Bio-Rad. Aminoallyl-dUTP (aa-dUTP), dNTPs, DNase I (RNase-free), DNA Polymerase I, Klenow Fragment exo-, Random Hexamer Primer, Long PCR Enzyme Mix and GeneJET™ PCR Purification Kit, GeneRuler™ 100 bp Plus DNA Ladder (ready-to-use, 100-3000 bp), 6×DNA Loading Dye were purchased from Fermentas (Thermo Scientific). Deep VentR™ exo-DNA Polymerase was purchased from New England Biolabs (NEB). Synthesized oligonucleotides (primers) were purchased from Tech Drogon Limited. GelRed™ Nucleic Acid Gel Stain (10000× in water) was purchased from Biotium. Other chemicals, reagents and solvents were all purchased from Aldrich or Invitrogen. ^1H and ^13C NMR spectra were measured on a Bruker ARX 400 NMR spectrometer using CDCl3 as solvent. High-resolution mass spectra (HRMS) were taken on a Finnigan TSQ 7000 triple quadrupole spectrometer in a MALDI-TOF mode. UV spectra were measured on a Milton Roy Spectronic 3000 Array spectrophotometer. Fluorescence (FL) spectra were recorded on a Perkin-Elmer LS 55 spectrofluorometer. FL quantum yields (ΦF) of amorphous powders of siloles were measured using C-701 Time-Resolved Spectrofluorometer with the integrating sphere as accessory.
Structure of dye is confirmed by standard spectroscopic methods (FIGS. 23, 26a, and 27a). In order to confirm TPEITC is AIE-active, we investigated its fluorescence in THF/water mixtures with different water fractions. […] TPEITC molecules with hydrophobic aromatic cores precipitated and became aggregate in the nonsolvent mixture. Aggregation blocks the nonradiative relaxation channels and populates the radiative decay, thus resulting in high luminescence. […]

[3] = Fluorescence quantum efficiency in the solid state; assay type: physicochemical
Source text: as §1

[4] = UV absorption of SITC for DOL calculation (Beer-Lambert law); assay type: physicochemical
Procedure: The 1061 bp template DNA was a PCR product of plasmid DNA. dTTP was replaced with increasing amount of SITC-dUTP. DOL of labeled DNA (number of dyes per 100 bases) were calculated from UV absorption base on Beer-Lambert law. The calculated molar extinction coefficient (ε) of SITC is 10277 cm^−1M^−1 and its correction factor (CF) is 2.08.

[5] = biological target: BSA (35 Cys) (Bos taurus, UniProt P02769); test: Fluorescent labeling of Cys residues of protein with TPEMBR, SDS-PAGE; set-up: species or system bovine; conditions: series of dye/thiol ratios
Procedure: 2.5 μL Tris-HCl (1 M), 2.5 μL TCEP (20 mM), 5 μL BSA (1 mg/mL, 15 μM), and 30 μL urea (8 M in water) was added to a 1.5 mL Eppendorf tube and mixed well. The mixture was incubated at room temperature for 30 min to pre-reduce the disulfide bonds with TCEP. Then, 10 μL of the TPEMBR DMSO stock solution (2.5 mM 5×) was added to the system and made the final volume 50 μL. The reaction mixture was incubated for 3 hours at 50° C. in an Eppendorf Thermomixer. Then, samples were cooled either to room temperature for instant use or frozen for eventual use.
In order to ensure that the Cys residues were sufficiently labeled with TPEMBR, a longer reaction time (usually overnight) at or below room temperature was required. Alternatively, the reaction time could be reduced if labeling was carried out at 50° C. To verify the time-dependence of labeling efficiency, bovine serum albumin (BSA) samples were labeled with TPEMBR for different times ranging from 10 min to 4 h and analyzed by SDS-PAGE. The fluorescence intensity of the labeled BSA increased as the reaction time was extended. The maximum intensity under specific labeling conditions was observed after 3 h and remained unchanged even with an additional 1 h of reaction time (FIGS. 11a and 11b). […] The time-dependent labeling effect provides a way to determine the desirable DOL according to different applications by simply controlling the labeling time. Meanwhile, a lower temperature labeling process with a longer reaction time could be a better choice to obtain fluorescent proteins while maintaining their native structures.
BSA samples were subjected to labeling with different dye concentrations. The SDS-PAGE fluorescence intensity of labeled BSA increased with increasing dye concentration. […] Further increasing the dye concentration could give higher fluorescence intensity due to nonspecific labeling. Clearly, the DOL of protein samples can be controlled by varying the dye concentration.
Specific labeling of Cys residues by TPEMBR was examined through the labeling of proteins with different Cys contents. BSA (35 Cys), yeast enolase (single Cys) and horse myoglobin (0 Cys) were labeled with 0.5 mM of TPEMBR, respectively. The corresponding fluorescent products were analyzed on gel. […] The results further confirmed the specificity of TPEMBR to Cys residue when the working concentration of 0.5 mM was used.
BSA was labeled by each dye with a series of varying dye/thiol ratios. After the electrophoresis, the gel fluorescent image was taken under UV excitation and the fluorescence intensity was obtained from three independent experiments. Fluorescence intensities normalized with the sample with the lowest dye concentration are plotted versus the dye/thiol ratio (FIG. 16). […] This self-quenching effect is inevitable for self-quenching dyes such as 5-BMF and limits these dyes' application on quantification of proteins. In contrast, detection and quantification of proteins with high contents of Cys can be easily achieved by using AIE active molecules such as TPEMBR.

Sequence of bovine serum albumin (BSA) (P02769 25-607): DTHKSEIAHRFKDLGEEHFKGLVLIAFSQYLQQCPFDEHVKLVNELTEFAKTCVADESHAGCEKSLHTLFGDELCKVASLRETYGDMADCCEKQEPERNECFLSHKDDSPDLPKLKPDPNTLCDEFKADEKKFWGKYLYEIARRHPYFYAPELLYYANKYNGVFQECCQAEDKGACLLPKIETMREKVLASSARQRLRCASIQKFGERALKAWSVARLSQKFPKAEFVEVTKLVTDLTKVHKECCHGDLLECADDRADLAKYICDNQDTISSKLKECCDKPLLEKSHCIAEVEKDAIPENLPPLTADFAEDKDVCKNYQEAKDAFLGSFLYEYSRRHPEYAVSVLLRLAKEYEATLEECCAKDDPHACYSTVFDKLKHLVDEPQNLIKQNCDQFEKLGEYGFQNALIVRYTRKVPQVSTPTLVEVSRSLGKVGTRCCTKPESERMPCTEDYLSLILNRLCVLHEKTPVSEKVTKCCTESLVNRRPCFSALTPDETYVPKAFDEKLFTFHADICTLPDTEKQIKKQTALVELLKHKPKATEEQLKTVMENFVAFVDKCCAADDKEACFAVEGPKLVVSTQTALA
Sequence of BSA (35 Cys) (P02769 25-607): as above

## CCOc1ccc(Nc2ccc(C(=C3C=CC(=[N+](CC)Cc4cccc(S(=O)(=O)[O-])c4)C=C3)c3ccc(N(CC)Cc4cccc(S(=O)(=O)[O-])c4)cc3)cc2)cc1.[Na+] [CBB, reference compound]
[1]
  LOD: remained the same
  limit of detection (LOD): 0.2 µg

## S=C=NCc1ccc(C(=C(c2ccccc2)c2ccccc2)c2ccccc2)cc1 [TPEITC]
[2]; THF/water mixture, water content 90 vol %
  fluorescence intensity (I) relative to pure THF solution (I0): about 36177 fold

## S=C=NCc1ccc(C(=C(c2ccccc2)c2ccc(CN=C=S)cc2)c2ccccc2)cc1 [TPENCS, 1,2-bis[4-(isothiocyanatemethyl)phenyl]-1,2-diphenylethene]
[1]
  LOD: 0.1 µg
  limit of detection (LOD): 0.2 µg
[1]; poststaining
  LOD on nitrocellulose membrane: 1 µg
[1]; prestained versus poststained BSA bands
  effect on protein migration: no significant effect on protein migration rate
[1]; prestaining
  LOD on nitrocellulose membrane: 2 µg
  self-quenching effect versus F/P ratio: kept increasing
[3]
  quantum efficiency: 52.2%
[2]; water/THF solution, water fraction 90 vol %
  PL intensity relative to the mixture with 70% water: approximately 50 fold

## fluorescein isothiocyanate [FITC, reference compound]
[1]; prestaining
  self-quenching effect versus F/P ratio: 1000 times

## C[Si]1(C)C(c2ccc(CN=C=S)cc2)=C(c2ccccc2)C(c2ccccc2)=C1c1ccc(CN=C=S)cc1 [SITC, 1,1-dimethyl-2,5-bis[4-(isothiocyanatemethyl)phenyl]-3,4-diphenyl silole]
[4]
  calculated molar extinction coefficient (ε): 10277 cm^−1M^−1
  correction factor (CF): 2.08
[3]
  quantum efficiency: 45.8%
[2]
  emission maximum: 490 nm
  wavelength at maximum absorption: 363 nm
[2]; water/THF solution, water fraction 95 vol %
  photoluminescence intensity relative to the mixture with 70% water: approximately 50 fold

## O=C1OC2(c3ccc(O)cc3Oc3cc(O)ccc32)c2ccc(CBr)cc21 [5-BMF, reference compound]
[5]
  self-quenching effect versus dye/thiol ratio: 30 times
